Patent US20240376121A1, “COMPOUNDS AND USES THEREOF” (Foghorn Therapeutics Inc., priority 2021, published 2024)

What was measured:
HiBit-BRM fusion protein = target: T1, HiBit-BRM fusion protein (Homo sapiens, UniProt P51531); assay: HiBiT-BRM cell-based degradation assay (Nano-Glo HiBiT Lytic Detection); conditions: stable HeLa cell line expressing HiBiT-BRM, 24 h incubation; for BRM HiBit Degradation Maximum (%): top dose 30 μM; for DC50: read-out: BRM HiBit Degradation IC50
T1 construct: expressed in transfected cells
T1 sequence (P51531 whole entry, the tested form may be a part): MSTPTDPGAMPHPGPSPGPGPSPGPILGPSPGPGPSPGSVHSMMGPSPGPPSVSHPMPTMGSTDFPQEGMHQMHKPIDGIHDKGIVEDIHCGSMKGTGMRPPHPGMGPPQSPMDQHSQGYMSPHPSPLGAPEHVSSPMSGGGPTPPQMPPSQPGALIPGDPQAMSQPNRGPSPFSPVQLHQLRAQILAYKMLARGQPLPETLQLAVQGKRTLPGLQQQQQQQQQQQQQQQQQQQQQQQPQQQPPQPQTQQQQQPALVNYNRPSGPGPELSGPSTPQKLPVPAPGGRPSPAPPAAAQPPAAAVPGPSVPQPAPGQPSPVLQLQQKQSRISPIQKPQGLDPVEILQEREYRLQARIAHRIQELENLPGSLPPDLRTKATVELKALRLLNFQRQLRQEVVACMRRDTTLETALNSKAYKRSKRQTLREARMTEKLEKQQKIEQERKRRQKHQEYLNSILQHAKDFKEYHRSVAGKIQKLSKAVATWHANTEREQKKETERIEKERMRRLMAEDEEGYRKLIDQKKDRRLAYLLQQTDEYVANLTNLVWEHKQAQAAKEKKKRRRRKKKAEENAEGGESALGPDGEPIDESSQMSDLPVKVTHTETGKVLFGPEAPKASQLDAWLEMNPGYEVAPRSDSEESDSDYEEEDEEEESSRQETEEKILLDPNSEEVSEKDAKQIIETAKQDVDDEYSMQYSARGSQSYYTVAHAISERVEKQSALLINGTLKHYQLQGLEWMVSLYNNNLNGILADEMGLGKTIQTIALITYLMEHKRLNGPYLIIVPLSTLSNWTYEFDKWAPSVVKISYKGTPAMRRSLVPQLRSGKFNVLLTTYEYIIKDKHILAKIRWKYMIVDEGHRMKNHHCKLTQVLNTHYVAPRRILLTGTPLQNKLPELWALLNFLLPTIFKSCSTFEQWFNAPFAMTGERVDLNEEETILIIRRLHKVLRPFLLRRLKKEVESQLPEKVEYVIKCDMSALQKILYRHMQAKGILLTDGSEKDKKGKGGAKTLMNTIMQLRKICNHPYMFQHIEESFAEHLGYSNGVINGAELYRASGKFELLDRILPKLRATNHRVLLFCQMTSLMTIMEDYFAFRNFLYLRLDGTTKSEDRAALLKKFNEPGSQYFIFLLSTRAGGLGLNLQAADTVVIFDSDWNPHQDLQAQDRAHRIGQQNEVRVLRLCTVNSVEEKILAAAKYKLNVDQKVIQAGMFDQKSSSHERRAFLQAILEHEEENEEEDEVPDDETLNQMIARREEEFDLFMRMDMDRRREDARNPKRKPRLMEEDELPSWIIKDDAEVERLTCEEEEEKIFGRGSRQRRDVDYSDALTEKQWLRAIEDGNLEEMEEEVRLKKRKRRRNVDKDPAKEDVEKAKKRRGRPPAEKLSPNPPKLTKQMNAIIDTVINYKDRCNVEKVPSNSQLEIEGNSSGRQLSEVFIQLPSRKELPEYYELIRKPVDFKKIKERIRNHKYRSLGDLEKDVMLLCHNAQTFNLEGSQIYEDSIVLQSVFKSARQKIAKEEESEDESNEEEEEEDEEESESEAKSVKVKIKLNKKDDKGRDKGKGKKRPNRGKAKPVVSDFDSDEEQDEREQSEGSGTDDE
How it was run: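 Residual HiBiT-BRM in a stable HeLa line was measured by Nano-Glo lytic luminescence after 24 h compound exposure (top final dose 30 μM, 3-fold, 10 points, duplicate). Values are % degradation, scaled between DMSO-treated cells and cells given 2 μM of a known BRM/BRG1 degrader.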

[1] = target: T2, HiBit-BRG1 fusion protein (Homo sapiens, UniProt P51532); assay: HiBiT-BRG1 cell-based degradation assay (Nano-Glo HiBiT Lytic Detection); conditions: stable HeLa cell line expressing HiBit-BRG1 and LgBit, 24 h incubation; for Dmax: top dose 30 μM, read-out: BRG1 HiBit Degradation Maximum (%); for DC50: read-out: BRMG1 HiBit Degradation IC50
T2 construct: expressed in transfected cells
T2 sequence (P51532 whole entry, the tested form may be a part): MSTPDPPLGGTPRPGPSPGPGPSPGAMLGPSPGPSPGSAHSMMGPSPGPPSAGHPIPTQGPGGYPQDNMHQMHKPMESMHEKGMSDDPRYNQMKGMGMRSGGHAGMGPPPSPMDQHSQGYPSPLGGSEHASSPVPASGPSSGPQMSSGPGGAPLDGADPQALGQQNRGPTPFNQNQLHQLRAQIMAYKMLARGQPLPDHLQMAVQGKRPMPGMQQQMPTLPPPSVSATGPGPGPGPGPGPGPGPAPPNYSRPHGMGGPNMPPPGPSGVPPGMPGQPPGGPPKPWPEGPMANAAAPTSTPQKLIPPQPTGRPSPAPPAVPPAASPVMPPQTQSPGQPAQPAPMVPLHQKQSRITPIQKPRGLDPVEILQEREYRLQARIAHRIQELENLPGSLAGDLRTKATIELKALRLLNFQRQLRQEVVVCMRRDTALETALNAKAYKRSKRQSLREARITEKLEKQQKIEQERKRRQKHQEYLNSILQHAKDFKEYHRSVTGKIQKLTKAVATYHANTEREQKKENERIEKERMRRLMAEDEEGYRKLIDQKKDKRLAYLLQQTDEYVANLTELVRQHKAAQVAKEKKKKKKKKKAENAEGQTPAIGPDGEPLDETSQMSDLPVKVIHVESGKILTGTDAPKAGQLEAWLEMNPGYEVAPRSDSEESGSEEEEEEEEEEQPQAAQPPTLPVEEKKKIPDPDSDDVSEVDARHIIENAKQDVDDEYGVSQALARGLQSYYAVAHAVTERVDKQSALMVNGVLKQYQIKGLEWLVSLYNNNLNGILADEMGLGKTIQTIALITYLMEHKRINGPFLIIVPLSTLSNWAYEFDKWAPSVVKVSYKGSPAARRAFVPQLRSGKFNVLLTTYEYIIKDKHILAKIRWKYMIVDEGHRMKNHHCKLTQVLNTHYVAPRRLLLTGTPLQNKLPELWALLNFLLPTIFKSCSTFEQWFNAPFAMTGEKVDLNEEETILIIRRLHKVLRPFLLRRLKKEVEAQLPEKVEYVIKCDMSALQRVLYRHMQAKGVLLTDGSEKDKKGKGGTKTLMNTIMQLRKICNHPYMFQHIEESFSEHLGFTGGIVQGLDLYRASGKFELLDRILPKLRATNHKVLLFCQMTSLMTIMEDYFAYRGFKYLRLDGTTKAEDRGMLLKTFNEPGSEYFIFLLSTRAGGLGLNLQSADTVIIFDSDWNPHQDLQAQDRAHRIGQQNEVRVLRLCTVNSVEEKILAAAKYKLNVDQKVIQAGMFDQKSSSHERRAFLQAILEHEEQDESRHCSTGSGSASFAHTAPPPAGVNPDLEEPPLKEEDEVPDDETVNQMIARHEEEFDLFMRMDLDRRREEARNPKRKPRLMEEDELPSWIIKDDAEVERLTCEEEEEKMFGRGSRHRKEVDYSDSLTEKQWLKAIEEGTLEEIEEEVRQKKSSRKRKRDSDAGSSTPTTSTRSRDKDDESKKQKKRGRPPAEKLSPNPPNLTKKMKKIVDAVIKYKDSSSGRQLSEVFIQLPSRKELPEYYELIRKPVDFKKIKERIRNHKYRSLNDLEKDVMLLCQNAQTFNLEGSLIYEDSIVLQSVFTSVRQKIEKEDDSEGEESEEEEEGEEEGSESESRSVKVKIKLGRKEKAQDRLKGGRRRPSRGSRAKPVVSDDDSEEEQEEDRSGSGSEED
How it was run: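 Degradation was scored from HiBiT lytic luminescence, scaled between DMSO-treated wells and wells given 2 μM of a standard BRM/BRG1 degrader. Cells were a stable HeLa HiBiT-BRG1/LgBiT line dosed for 24 h, ten concentrations in 3-fold steps from 30 μM, in duplicate.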

| SMILES | BRM HiBit Degradation Maximum (%) (HiBit-BRM fusion protein) | DC50 (HiBit-BRM fusion protein) [µM] | Dmax [1] [%] | DC50 [1] [µM] |
| --- | --- | --- | --- | --- |
| Cc1ncsc1-c1ccc([C@H](C)NC(=O)[C@@H]2C[C@@H](O)CN2C(=O)[C@@H](c2cc(N3CCC(C(=O)N4CCC(c5sc6nnc(-c7ccccc7O)cc6c5C)CC4)CC3)no2)C(C)C)cc1 [Compound 98, (2S,4R)-4-hydroxy-1-((R)-2-(3-(4-(4-(3-(2-hydroxyphenyl)-5-methylthieno[2,3-c]pyridazin-6-yl)piperidine-1-carbonyl)piperidin-1-yl)isoxazol-5-yl)-3-methylbutanoyl)-N-((S)-1-(4-(4-methylthiazol-5-yl)phenyl)ethyl)pyrrolidine-2-carboxamide] | A (“A” indicates maximum degradation ≥ 75%) | < 0.01 | ≥ 50 | ≥ 1 |
| Cc1ncsc1-c1ccc([C@H](C)NC(=O)[C@@H]2C[C@@H](O)CN2C(=O)[C@@H](c2cc(N3CCC(C(=O)N4CC(c5cc6nnc(-c7ccccc7O)cc6s5)C4)CC3)no2)C(C)C)cc1 [Compound 99, (2S,4R)-4-hydroxy-1-((R)-2-(3-(4-(3-(3-(2-hydroxyphenyl)thieno[3,2-c]pyridazin-6-yl)azetidine-1-carbonyl)piperidin-1-yl)isoxazol-5-yl)-3-methylbutanoyl)-N-((S)-1-(4-(4-methylthiazol-5-yl)phenyl)ethyl)pyrrolidine-2-carboxamide] | A (“A” indicates maximum degradation ≥ 75%) | ≥ 0.01 | < 50 | ≥ 1 |
| Cc1ncsc1-c1ccc([C@H](C)NC(=O)[C@@H]2C[C@@H](O)CN2C(=O)[C@@H](c2cc(OCCN3CCC(N4CC(c5sc6nnc(-c7ccccc7O)cc6c5C)C4)CC3)no2)C(C)C)cc1 [Compound 100, (2S,4R)-4-hydroxy-1-((R)-2-(3-(2-(4-(3-(3-(2-hydroxyphenyl)-5-methylthieno[2,3-c]pyridazin-6-yl)azetidin-1-yl)piperidin-1-yl)ethoxy)isoxazol-5-yl)-3-methylbutanoyl)-N-((S)-1-(4-(4-methylthiazol-5-yl)phenyl)ethyl)pyrrolidine-2-carboxamide] | A (“A” indicates maximum degradation ≥ 75%) | ≥ 0.01 | < 50 | ≥ 1 |
| Cc1ncsc1-c1ccc([C@H](C)NC(=O)[C@@H]2C[C@@H](O)CN2C(=O)[C@@H](c2cc(OCCN3CCC(c4csc5nnc(-c6ccccc6O)cc45)CC3)no2)C(C)C)cc1 [Compound 101, (2S,4R)-4-hydroxy-1-((R)-2-(3-(2-(4-(3-(2-hydroxyphenyl)thieno[2,3-c]pyridazin-5-yl)piperidin-1-yl)ethoxy)isoxazol-5-yl)-3-methylbutanoyl)-N-((S)-1-(4-(4-methylthiazol-5-yl)phenyl)ethyl)pyrrolidine-2-carboxamide] | C (“C” indicates maximum degradation < 50%) | ≥ 1 | < 50 | ≥ 1 |
| Cc1ncsc1-c1ccc([C@H](C)NC(=O)[C@@H]2C[C@@H](O)CN2C(=O)[C@@H](c2cc(OCCN3CC(c4csc5nnc(-c6ccccc6O)cc45)C3)no2)C(C)C)cc1 [Compound 102, (2S,4R)-4-hydroxy-1-((R)-2-(3-(2-(3-(3-(2-hydroxyphenyl)thieno[2,3-c]pyridazin-5-yl)azetidin-1-yl)ethoxy)isoxazol-5-yl)-3-methylbutanoyl)-N-((S)-1-(4-(4-methylthiazol-5-yl)phenyl)ethyl)pyrrolidine-2-carboxamide] | C (“C” indicates maximum degradation < 50%) | ≥ 1 | < 50 | ≥ 1 |
